Results from patent publication US8943743B2, “Device for attracting and controlling the coffee berry borer, Hypothenemus hampei (Coleoptera: Scolytidae)” (Plato Industries Ltd, priority 2008, dated 2015).

What was measured:
[1] = test system: coffee berry borer (CBB), Hypothenemus hampei; assay: Second field study 2008 near Naranjo, Costa Rica: damaged berries 70 days after treatment; assay type: in vivo; details: Costa Rica 2008, 2500 m^2 blocks, 20 TMBs per hectare, 70 days after treatments were initiated
Protocol: A second study was conducted in 2008 near Naranjo, Costa Rica. In this study, blocks treated with either blue and red TMBs had fewer damaged berries 70 days after treatments were initiated than did the untreated block or the block treated with endosulfan. Each block was 2500 m^2 in size and was treated with 20 TMBs per hectare.

[2] = test system: coffee berry borer (CBB), Hypothenemus hampei; assay: Third field study 2008 near Alajuela, Costa Rica: damaged berries 70 days after treatment; assay type: in vivo; details: Costa Rica 2008, 2500 m^2 blocks, 20 TMBs per hectare, 70 days after treatments were initiated
Protocol: A third study was conducted in 2008 near Alajuela, Costa Rica. In this study, 2500 m^2 blocks treated with either blue and red TMBs at a rate of 20 TMBs per hectare had fewer damaged berries 70 days after treatments were initiated than did the untreated block, the block treated with endosulfan, or the block treated with red plastic traps.

With `O=S1OCC2C(CO1)C1(Cl)C(Cl)=C(Cl)C2(Cl)C1(Cl)Cl` (centres unmarked) [endosulfan] the “Mean % infested berries” value [1] was 1.15% and the “Mean % infested berries” value [2] was 5.9%.
